Measurements published in patent US20260053811A1, “METHODS OF TREATING HYPERTENSION IN OBESE SUBJECTS” (Mineralys Therapeutics, Inc., priority 2022, published 2026).

Test system: hypertensive subjects
Assay: Adverse events (TEAEs, SAEs, AESI, study drug discontinuation, dose modification);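 also: counts of spontaneously reported adverse events in the Safety Analysis Set, subjects grouped by treatment actually received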
Assay type: in vivo, human
Settings: Part 1
Text: In analyses performed on the Safety Analysis Set, subjects will be analyzed according to their actual treatment received.

## CC(=O)N[C@H]1CC[C@H](NC(=O)CN2CCN(c3nncc(-c4ccc(C)cc4)n3)CC2)CC1 [Compound A HBr]
12.5 mg QD (N = 23)
  On-treatment TEAE: Infections and infestations, Moderate: 0 n (%)
  On-treatment TEAE: Investigations: 3 (13.0) n (%)
  On-treatment TEAE: Investigations, Mild: 3 (13.0) n (%)
  On-treatment TEAE: Investigations, Moderate: 0 n (%)
  On-treatment TEAE: Metabolism and nutrition disorders: 6 (26.1) n (%)
  On-treatment TEAE: Metabolism and nutrition disorders, Mild: 4 (17.4) n (%)
  On-treatment TEAE: Metabolism and nutrition disorders, Moderate: 1 (4.3) n (%)
  On-treatment TEAE: Nervous system disorders: 2 (8.7) n (%)
  On-treatment TEAE: Nervous system disorders, Mild: 2 (8.7) n (%)
  On-treatment TEAE: Orthostatic hypotension: 2 (8.7) n (%)
  On-treatment TEAE: Orthostatic hypotension, Mild: 2 (8.7) n (%)
  On-treatment TEAE: Psychiatric disorders: 0 n (%)
  On-treatment TEAE: Psychiatric disorders, Moderate: 0 n (%)
  On-treatment TEAE: Urinary tract infection: 1 (4.3) n (%)
  On-treatment TEAE: Urinary tract infection, Mild: 1 (4.3) n (%)
  On-treatment TEAE: Vascular disorders: 3 (13.0) n (%)
  On-treatment TEAE: Vascular disorders, Mild: 2 (8.7) n (%)
  On-treatment TEAE: Vascular disorders, Moderate: 1 (4.3) n (%)
  On-treatment TEAE: any, Mild: 12 (52.2) n (%)
  On-treatment TEAE: any, Moderate: 3 (13.0) n (%)
  On-treatment TEAE: any, Severe: 1 (4.3) n (%)
  Subjects with any On-treatment TEAEs leading to withdrawal from study drug: 4 (17.4) n (%)
  TEAE leading to permanent discontinuation from study drug: Activated partial thromboplastin time prolonged: 0 n (%)
  TEAE leading to permanent discontinuation from study drug: Cardiac disorders: 1 (4.3) n (%)
  TEAE leading to permanent discontinuation from study drug: Coronary artery disease: 1 (4.3) n (%)
  TEAE leading to permanent discontinuation from study drug: Dizziness: 1 (4.3) n (%)
  TEAE leading to permanent discontinuation from study drug: Hyperkalaemia: 2 (8.7) n (%)
  TEAE leading to permanent discontinuation from study drug: Hypertension: 0 n (%)
  TEAE leading to permanent discontinuation from study drug: Hypotension: 0 n (%)
  TEAE leading to permanent discontinuation from study drug: Investigations: 0 n (%)
  TEAE leading to permanent discontinuation from study drug: Metabolism and nutrition disorders: 2 (8.7) n (%)
  TEAE leading to permanent discontinuation from study drug: Nervous system disorders: 1 (4.3) n (%)
  TEAE leading to permanent discontinuation from study drug: Orthostatic hypotension: 0 n (%)
  TEAE leading to permanent discontinuation from study drug: Vascular disorders: 0 n (%)
25 mg BID (N = 30)
  On-treatment TEAE: Blood and lymphatic system disorders: 2 (6.7) n (%)
  On-treatment TEAE: Blood and lymphatic system disorders, Mild: 2 (6.7) n (%)
  On-treatment TEAE: Blood creatinine increased: 0 n (%)
  On-treatment TEAE: Blood creatinine increased, Mild: 0 n (%)
  On-treatment TEAE: Cardiac disorders: 0 n (%)
  On-treatment TEAE: Cortisol decreased: 1 (3.3) n (%)
  On-treatment TEAE: Cortisol decreased, Mild: 1 (3.3) n (%)
  On-treatment TEAE: Dizziness: 0 n (%)
  On-treatment TEAE: Gastrointestinal disorders: 1 (3.3) n (%)
  On-treatment TEAE: Gastrointestinal disorders, Mild: 1 (3.3) n (%)
  On-treatment TEAE: General disorders and administration site conditions: 0 n (%)
  On-treatment TEAE: General disorders and administration site conditions, Mild: 0 n (%)
  On-treatment TEAE: Glomerular filtration rate decreased: 0 n (%)
  On-treatment TEAE: Glomerular filtration rate decreased, Mild: 0 n (%)
  On-treatment TEAE: Headache: 2 (6.7) n (%)
  On-treatment TEAE: Headache, Mild: 2 (6.7) n (%)
  On-treatment TEAE: Hyperkalaemia: 9 (30.0) n (%)
  On-treatment TEAE: Hyperkalaemia, Mild: 7 (23.3) n (%)
  On-treatment TEAE: Hyperkalaemia, Moderate: 2 (6.7) n (%)
  On-treatment TEAE: Hyperkalaemia, Severe: 0 n (%)
  On-treatment TEAE: Hypertension: 1 (3.3) n (%)
  On-treatment TEAE: Hypertension, Moderate: 0 n (%)
  On-treatment TEAE: Infections and infestations: 3 (10.0) n (%)
  On-treatment TEAE: Infections and infestations, Mild: 2 (6.7) n (%)
  On-treatment TEAE: Infections and infestations, Moderate: 1 (3.3) n (%)
  On-treatment TEAE: Investigations: 3 (10.0) n (%)
  On-treatment TEAE: Investigations, Mild: 2 (6.7) n (%)
  On-treatment TEAE: Investigations, Moderate: 1 (3.3) n (%)
  On-treatment TEAE: Metabolism and nutrition disorders: 10 (33.3) n (%)
  On-treatment TEAE: Metabolism and nutrition disorders, Mild: 8 (26.7) n (%)
  On-treatment TEAE: Metabolism and nutrition disorders, Moderate: 2 (6.7) n (%)
  On-treatment TEAE: Nervous system disorders: 3 (10.0) n (%)
  On-treatment TEAE: Nervous system disorders, Mild: 2 (6.7) n (%)
  On-treatment TEAE: Orthostatic hypotension: 0 n (%)
  On-treatment TEAE: Orthostatic hypotension, Mild: 0 n (%)
  On-treatment TEAE: Psychiatric disorders: 0 n (%)
  On-treatment TEAE: Psychiatric disorders, Moderate: 0 n (%)
  On-treatment TEAE: Urinary tract infection: 3 (10.0) n (%)
  On-treatment TEAE: Urinary tract infection, Mild: 2 (6.7) n (%)
  On-treatment TEAE: Vascular disorders: 1 (3.3) n (%)
  On-treatment TEAE: Vascular disorders, Mild: 1 (3.3) n (%)
  On-treatment TEAE: Vascular disorders, Moderate: 0 n (%)
  On-treatment TEAE: any, Mild: 14 (46.7) n (%)
  On-treatment TEAE: any, Moderate: 4 (13.3) n (%)
  On-treatment TEAE: any, Severe: 0 n (%)
  Subjects with any On-treatment TEAEs leading to withdrawal from study drug: 1 (3.3) n (%)
  TEAE leading to permanent discontinuation from study drug: Activated partial thromboplastin time prolonged: 0 n (%)
  TEAE leading to permanent discontinuation from study drug: Cardiac disorders: 0 n (%)
  TEAE leading to permanent discontinuation from study drug: Coronary artery disease: 0 n (%)
  TEAE leading to permanent discontinuation from study drug: Dizziness: 0 n (%)
  TEAE leading to permanent discontinuation from study drug: Hyperkalaemia: 1 (3.3) n (%)
  TEAE leading to permanent discontinuation from study drug: Hypertension: 1 (3.3) n (%)
  TEAE leading to permanent discontinuation from study drug: Hypotension: 0 n (%)
  TEAE leading to permanent discontinuation from study drug: Investigations: 0 n (%)
  TEAE leading to permanent discontinuation from study drug: Metabolism and nutrition disorders: 1 (3.3) n (%)
  TEAE leading to permanent discontinuation from study drug: Nervous system disorders: 0 n (%)
  TEAE leading to permanent discontinuation from study drug: Orthostatic hypotension: 0 n (%)
  TEAE leading to permanent discontinuation from study drug: Vascular disorders: 1 (3.3) n (%)
50 mg QD (N = 28)
  On-treatment TEAE: Blood and lymphatic system disorders: 0 n (%)
  On-treatment TEAE: Blood and lymphatic system disorders, Mild: 0 n (%)
  On-treatment TEAE: Blood creatinine increased: 0 n (%)
  On-treatment TEAE: Blood creatinine increased, Mild: 0 n (%)
  On-treatment TEAE: Cardiac disorders: 1 (3.6) n (%)
  On-treatment TEAE: Cortisol decreased: 0 n (%)
  On-treatment TEAE: Cortisol decreased, Mild: 0 n (%)
  On-treatment TEAE: Dizziness: 2 (7.1) n (%)
  On-treatment TEAE: Gastrointestinal disorders: 1 (3.6) n (%)
  On-treatment TEAE: Gastrointestinal disorders, Mild: 1 (3.6) n (%)
